Like-named read-outs stand apart in the source and are kept apart here.
B1: Brazzein(A28D): wild-type TypeIII Brazzein; residue 50 of pelB-Brazzein mutated from Alanine to Aspartate; mature protein from Seq Id No. 8 (protein)
chain: MKYLLPTAAAGLLLLAAQPAMADKCKKVYENYPVSKCQLANQCNYDCKLDKHARSGECFYDEKRNLQCICDYCEY
modifications: misc_feature 1..234 Synthetic: nucleotide Sequence encoding pelB conjugated to Brazzein(A28D)

Assays:
taste panel = experiment: Sensory analysis of purified Brazzein (taste panel, sweetness threshold versus sucrose); format: in vivo, humans; settings: for Experimental Threshold: first sample sensed as sweet, 200 microliter applied to anterior tongue, 30 tasters; for Relative Sweetness (by weight): relative to sucrose, 1% (w/v) sucrose reference
Experimental: A portion of the purified Brazzein (A28D) was lyophilized and re-dissolved in deionized water to 1.0 mg/mL. From this, Brazzein (A28D) solutions with following concentrations were made: 0.5, 1.0, 2.0, 3.0, 4.0, 5.0, 6.0, 7.0, 8.0, 9.0, and 10.0 μg/mL. A 1% (w/v) sucrose solution, the lowest concentration of sucrose detectable by humans, was used as a reference. The taste panel consisted of fifteen females and fifteen males with normal health and normal sense of taste. Two-hundred-microliter samples were applied to the anterior region of the tongue. After each test, the mouth was rinsed with tap water. The tasters sampled from the lower concentration samples to higher. Each taster chose the first sample that could be sensed for sweetness. Sweetness potencies were reported relative to sucrose on a weight basis.

[1] = Thermal stability of secreted Brazzein (heating of cell free supernatant, SDS-PAGE); format: physicochemical; settings: cell free supernatant heated at 80° C. for 60 mins, centrifuged at 17,500 g, FIG. 11
Experimental: Protein expression was analyzed by SDS-PAGE on 15% Tris-Glycine gels. To analyze protein in the cell culture medium, 17 μL of cell free supernatant (corresponding to 0.07% of total culture volume) was mixed with 17 μL of 2× reducing sample buffer, heated for 5 mins in a PCR machine, briefly spun and loaded into the gel. The gel was run at a constant voltage of 125V till the dye front exited the gel. The gels were washed in MILLI-Q® water for 1 hour and stained with Coomassie Stain. To analyze protein in whole cells, frozen cell pellets were thawed, re-suspended in 50 μL of MILLI-Q*water. 17 μL of resuspended cells were mixed with 17 μL of 2× Reducing Sample Buffer, heated for 5 mins in a PCR machine, briefly spun and loaded into the gel. The gel was run at constant voltage of 125V till the dye front exited it. The gels were washed in MILLI-Q*water for 1 hour and stained with Coomassie Stain.
[…] The supernatant was analyzed by SDS-PAGE. Protein quantitation was done using BCA assay kit. As a result of heating, most of the endogenous E. coli proteins present in the cell free supernatant precipitated, leaving >90% pure Brazzein in solution.

[2] = cited from earlier work

Molecule	Experimental Threshold (taste panel)	Relative Sweetness (by weight) (taste panel)	thermal stability: Brazzein in soluble supernatant after heating [1]	sweeter than sucrose ([2]; in comparison to 2% sucrose aqueous solution)	sweeter than sucrose ([2]; in comparison to 10% sucrose) [times]	sweeter than sucrose on a weight basis (taste panel; relative to 1% (w/v) sucrose reference) [times]
OC[C@H]1O[C@@](CO)(O[C@H]2O[C@H](CO)[C@@H](O)[C@H](O)[C@H]2O)[C@@H](O)[C@@H]1O [Sucrose, reference compound]	1 % [g/100 mL]	1				
Brazzein: high-potency thermostable sweet protein, originally isolated from the fruit of Pentadiplandra brazzeana Baillon (DKCKKVYENYPVSKCQLANQCNYDCKLDKHARSGECFYDEKRNLQCICDYCEY; Synthetic: Amino Acid Sequence of pelB-Brazzein(A28D))			Presence of Brazzein in lanes 1 and 2	2,500 times	500	
B1	0.0006 % [g/100 mL]	1660				1660

From US12606836B2, “Process for extracellular secretion of Brazzein” (MAGELLAN LIFE SCIENCES LTD., priority 2016, dated 2026)
